Earlier results, collected in patent US20250350689A1, “INTRAVENOUS DOFETILIDE AND USES THEREOF” (Hyloris Developments SA, priority 2023, published 2025).
Values joined by “and” are separate entries in the source; they are usually repeats but may differ in a detail not shown here. Equal entries are not always repeated. Where two headings read alike, the source gives them in different places.

Tests used:
[1] = not given; remark: listed apart in the source
QTc interval = details: slope of QTc versus dofetilide plasma concentration, Sedgwick et al
[2] = clinical studies, life threatening arrhythmias

plasma concentration (infusion of 3.0 μg/mL): 5.35 ng/mL | IV dofetilide kinetics (relationship between IV dose and serum concentration): linear | peak plasma concentration (single dose, 10 min. IV infusion of 1.5 μg/kg): 1.74 ng/mL and 1.7 ng/mL | plasma concentration Cmax ([1]; 500 μg oral dose, single dose): 1.9 ng/mL | time to reach a steady state concentration ([1]; oral dofetilide): at least 3 days
Compound: CN(CCOc1ccc(NS(C)(=O)=O)cc1)CCc1ccc(NS(C)(=O)=O)cc1 [dofetilide]
QTc change per plasma concentration (QTc interval): 15 to 25 ms/ng/mL | safety in patients with poor heart function / heart failure [2]: not to increase life threatening arrhythmias | safety in patients with poor heart function / heart failure ([2]; listed as Dofetilide): safe
